Series [1] has as its target Metabotropic glutamate receptor 1 (Rattus norvegicus, UniProt P23385). Kind of series: Antagonist activity at rat mGluR1a expressed in CHO cells assessed as inhibition of glutamate-evoked increase in calcium […] preincubated 5 mins before glutamate challenge. It is filed as functional, cell-based.
Series [2] in a line: Ratio of free drug level in cerebrospinal fluid to steady state unbound plasma in iv dosed rat. It is filed as ADME, organism-based.
A short description of series [3]: Lipophilicity, log D of the compound. The class given is physicochemical. The following applies: octanol/water.
For series [4], the target named is Metabotropic glutamate receptor 1 (Homo sapiens, UniProt Q13255). Kind of series: Antagonist activity at mGluR1. It is filed as functional.
Metabotropic glutamate receptor 1 (Homo sapiens, UniProt Q13255), sequence (Q13255 whole entry): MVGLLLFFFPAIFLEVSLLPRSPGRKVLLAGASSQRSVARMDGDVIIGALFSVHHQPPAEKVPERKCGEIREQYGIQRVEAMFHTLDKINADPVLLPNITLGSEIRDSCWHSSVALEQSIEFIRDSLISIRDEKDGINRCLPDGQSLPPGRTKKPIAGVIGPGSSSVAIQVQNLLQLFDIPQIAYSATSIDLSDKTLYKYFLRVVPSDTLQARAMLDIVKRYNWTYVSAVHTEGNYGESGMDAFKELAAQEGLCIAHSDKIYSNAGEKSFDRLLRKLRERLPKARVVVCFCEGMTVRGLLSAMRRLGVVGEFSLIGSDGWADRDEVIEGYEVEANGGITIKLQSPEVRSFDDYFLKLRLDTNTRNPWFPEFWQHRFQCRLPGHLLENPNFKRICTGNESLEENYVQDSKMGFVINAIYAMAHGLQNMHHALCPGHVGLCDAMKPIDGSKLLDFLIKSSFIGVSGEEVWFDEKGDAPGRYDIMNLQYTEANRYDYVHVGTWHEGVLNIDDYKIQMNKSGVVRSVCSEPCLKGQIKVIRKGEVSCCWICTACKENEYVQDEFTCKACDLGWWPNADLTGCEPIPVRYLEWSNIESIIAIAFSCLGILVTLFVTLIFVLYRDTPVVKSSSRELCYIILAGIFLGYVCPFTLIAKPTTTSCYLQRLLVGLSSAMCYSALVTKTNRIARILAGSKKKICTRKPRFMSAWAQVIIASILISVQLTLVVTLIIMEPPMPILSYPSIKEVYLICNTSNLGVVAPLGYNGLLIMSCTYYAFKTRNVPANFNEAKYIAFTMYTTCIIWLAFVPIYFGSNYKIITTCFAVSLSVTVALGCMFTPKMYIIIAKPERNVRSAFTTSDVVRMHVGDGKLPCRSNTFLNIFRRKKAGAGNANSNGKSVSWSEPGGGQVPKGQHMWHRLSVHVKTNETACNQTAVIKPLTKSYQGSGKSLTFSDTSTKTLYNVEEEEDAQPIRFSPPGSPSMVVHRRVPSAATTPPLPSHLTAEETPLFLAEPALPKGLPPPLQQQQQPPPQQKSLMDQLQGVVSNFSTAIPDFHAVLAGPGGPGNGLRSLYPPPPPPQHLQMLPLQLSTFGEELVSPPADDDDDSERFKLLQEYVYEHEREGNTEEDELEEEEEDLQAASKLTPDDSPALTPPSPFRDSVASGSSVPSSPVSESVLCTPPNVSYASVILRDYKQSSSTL
Series [5] in a line: Half life in rat at 1 mg/kg. It is filed as ADME, organism-based. The arrangement: dose 1 mg/kg. The note with it: in vivo.
A short description of series [6]: Clearance in rat at 1 mg/kg. The class given is ADME, organism-based. Also noted: dose 1 mg/kg. The note with it: in vivo.
Series [7] in a line: Volume of distribution in rat at 1 mg/kg. The note with it: in vivo. The arrangement: dose 1 mg/kg. The class given is ADME, organism-based.
The nature of series [8]: Oral bioavailability in rat at 1 mg/kg. The class given is ADME, organism-based. The note with it: in vivo.
The nature of series [9]: Protein binding in rat plasma at 1 mg/kg. Also noted: dose 1 mg/kg. The following applies: read-out: PPB (converted). The class given is ADME, organism-based.
The test system of series [10] is Liver microsomes. The series can be described thus: Metabolic stability in human liver microsomes assessed as intrinsic clearance. The class given is ADME, Microsome.
The subject of series [11] is Liver microsomes. The series can be described thus: Metabolic stability in rat liver microsomes assessed as intrinsic clearance. It is filed as ADME, Microsome.
In series [12] the target is Metabotropic glutamate receptor 5 (Homo sapiens, UniProt P41594). Kind of series: Antagonist activity at mGluR5. It is filed as functional.
Metabotropic glutamate receptor 5, sequence (P41594 whole entry, the tested form may be a part): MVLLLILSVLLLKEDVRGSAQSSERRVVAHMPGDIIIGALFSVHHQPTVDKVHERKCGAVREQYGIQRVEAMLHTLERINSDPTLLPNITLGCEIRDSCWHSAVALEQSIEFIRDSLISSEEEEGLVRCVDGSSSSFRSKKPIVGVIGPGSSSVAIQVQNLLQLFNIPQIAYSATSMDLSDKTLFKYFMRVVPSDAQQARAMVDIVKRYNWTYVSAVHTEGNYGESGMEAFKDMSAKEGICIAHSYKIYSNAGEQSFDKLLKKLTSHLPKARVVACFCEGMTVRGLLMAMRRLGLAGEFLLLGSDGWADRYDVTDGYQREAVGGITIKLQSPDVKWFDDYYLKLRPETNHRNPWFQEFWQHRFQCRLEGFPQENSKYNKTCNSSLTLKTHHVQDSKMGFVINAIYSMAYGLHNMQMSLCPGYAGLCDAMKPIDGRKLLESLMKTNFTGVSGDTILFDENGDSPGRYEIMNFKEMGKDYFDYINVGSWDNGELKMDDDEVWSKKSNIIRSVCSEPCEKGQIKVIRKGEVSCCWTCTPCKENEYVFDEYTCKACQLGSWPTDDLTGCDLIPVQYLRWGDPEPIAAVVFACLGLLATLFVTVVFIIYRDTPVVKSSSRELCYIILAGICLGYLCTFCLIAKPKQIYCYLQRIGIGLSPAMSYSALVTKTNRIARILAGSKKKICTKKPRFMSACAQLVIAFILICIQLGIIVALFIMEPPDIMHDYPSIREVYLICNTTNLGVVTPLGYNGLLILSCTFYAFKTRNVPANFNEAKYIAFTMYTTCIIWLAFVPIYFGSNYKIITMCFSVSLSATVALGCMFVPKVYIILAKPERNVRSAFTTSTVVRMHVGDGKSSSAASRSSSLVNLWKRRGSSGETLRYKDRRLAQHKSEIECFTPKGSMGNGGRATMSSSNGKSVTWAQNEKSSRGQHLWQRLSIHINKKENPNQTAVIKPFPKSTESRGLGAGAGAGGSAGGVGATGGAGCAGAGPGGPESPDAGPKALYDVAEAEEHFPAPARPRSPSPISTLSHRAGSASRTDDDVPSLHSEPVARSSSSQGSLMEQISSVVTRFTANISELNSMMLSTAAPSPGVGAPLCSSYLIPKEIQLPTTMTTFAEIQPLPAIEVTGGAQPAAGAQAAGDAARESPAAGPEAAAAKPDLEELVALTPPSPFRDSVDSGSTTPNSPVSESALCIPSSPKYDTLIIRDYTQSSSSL
The test system of series [13] is Rattus norvegicus. Kind of series: Antinociceptive activity in anaesthetized rat assessed as inhibition of noxious pinch-induced electromyograph response at 22 mg/kg, iv administered as bolus dose for 30 seconds and 9.6 mg/kg/hr, iv administered via infusion measured after 1 hr. It is filed as functional, organism-based.
Series [14] concerns Rattus norvegicus. Kind of series: Antinociceptive activity in anaesthetized rat assessed as inhibition of low threshold tactile stimulus-induced electromyograph response at 22 mg/kg, iv administered as bolus dose for 30 seconds and 9.6 mg/kg/hr, iv administered via infusion measured after 1 hr. It is filed as functional, organism-based.
Series [15] deals with Rattus norvegicus. The series can be described thus: Antinociceptive activity in anaesthetized rat assessed as maximal inhibition of noxious pinch-induced electromyograph response at 10 fold free Ki concentration in cerebrospinal fluid measured after 1 hr. It is filed as functional, organism-based.
For series [16], the system named is Rattus norvegicus. Kind of series: Free plasma concentration in anaesthetized electromyograph pinch rat model at 22 mg/kg, iv administered as bolus dose for 30 seconds and 9.6 mg/kg/hr, iv administered via infusion. It is filed as ADME, organism-based. The following applies: in vivo.
Series [17] concerns Rattus norvegicus. Kind of series: Toxicity in anaesthetized electromyograph pinch rat model assessed as effect on sensory input to spinal cord at 22 mg/kg, iv administered as bolus dose for 30 seconds and 9.6 mg/kg/hr, iv administered via infusion. It is filed as organism-based. The following applies: in vivo.
The nature of series [18]: Solubility of the compound. It is filed as physicochemical.
The subject of series [19] is Rattus norvegicus. The series can be described thus: Antinociceptive activity in anaesthetized rat assessed as maximal inhibition of noxious pinch-induced electromyograph response at 8 to 16 fold free Ki concentration in cerebrospinal fluid measured after 1 hr. The class given is functional, organism-based.
Series [20] concerns Rattus norvegicus. Kind of series: Analgesic activity in awake rat at 0.3 mg/kg, iv administered as bolus dose for 30 seconds and 0.3 mg/kg/hr, iv administered via infusion measured after 1 hr. The class given is functional, organism-based.
Series [21] deals with Rattus norvegicus. Kind of series: Antinociceptive activity in anaesthetized rat assessed as inhibition of noxious pinch-induced electromyograph response at 0.3 mg/kg, iv administered as bolus dose for 30 seconds and 0.3 mg/kg/hr, iv administered via infusion measured after 1 hr. It is filed as functional.

Activity calls are given as the source filed them.

Metabotropic glutamate receptor 1 (Rattus norvegicus, UniProt P23385), sequence (P23385 whole entry): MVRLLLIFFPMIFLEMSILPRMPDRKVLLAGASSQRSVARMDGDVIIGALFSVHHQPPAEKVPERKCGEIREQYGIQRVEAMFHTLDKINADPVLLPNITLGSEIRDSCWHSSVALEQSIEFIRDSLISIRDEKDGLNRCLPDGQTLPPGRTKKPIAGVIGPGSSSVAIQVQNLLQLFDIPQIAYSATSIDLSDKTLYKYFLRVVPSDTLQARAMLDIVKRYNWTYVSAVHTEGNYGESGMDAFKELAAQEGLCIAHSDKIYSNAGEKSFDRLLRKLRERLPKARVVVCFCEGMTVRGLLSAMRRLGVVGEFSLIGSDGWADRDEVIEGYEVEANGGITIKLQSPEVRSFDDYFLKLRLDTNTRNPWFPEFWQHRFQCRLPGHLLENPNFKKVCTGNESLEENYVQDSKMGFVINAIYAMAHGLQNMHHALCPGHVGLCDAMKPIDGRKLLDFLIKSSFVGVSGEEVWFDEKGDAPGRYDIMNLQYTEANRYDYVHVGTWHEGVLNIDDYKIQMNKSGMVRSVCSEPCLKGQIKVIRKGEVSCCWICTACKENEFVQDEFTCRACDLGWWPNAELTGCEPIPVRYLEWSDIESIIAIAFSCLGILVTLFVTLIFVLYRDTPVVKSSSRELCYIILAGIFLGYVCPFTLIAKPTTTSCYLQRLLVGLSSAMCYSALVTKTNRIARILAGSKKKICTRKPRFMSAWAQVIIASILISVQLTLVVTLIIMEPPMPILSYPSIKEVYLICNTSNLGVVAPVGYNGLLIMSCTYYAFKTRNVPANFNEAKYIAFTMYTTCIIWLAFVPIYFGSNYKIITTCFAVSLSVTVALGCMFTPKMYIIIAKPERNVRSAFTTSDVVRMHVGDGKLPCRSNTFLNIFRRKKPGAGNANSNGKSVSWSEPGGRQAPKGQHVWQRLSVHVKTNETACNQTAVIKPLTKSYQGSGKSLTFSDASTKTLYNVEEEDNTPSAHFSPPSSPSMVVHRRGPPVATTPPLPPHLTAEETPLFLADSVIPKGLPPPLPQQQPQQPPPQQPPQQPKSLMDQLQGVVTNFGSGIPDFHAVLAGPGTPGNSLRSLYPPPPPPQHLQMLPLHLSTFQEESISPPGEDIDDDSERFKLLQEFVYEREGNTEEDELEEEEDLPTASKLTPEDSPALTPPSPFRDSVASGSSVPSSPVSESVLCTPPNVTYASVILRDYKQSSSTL

For the compound `CN(C)c1cc2c(N(C)C3Cc4ccccc4C3)ncnc2cn1`, the Ki in series [1] was found to be 300 nM.
The same measure, in the same setting: as for `CCCC(C)Nc1ncnc2cnc(N(C)C)cc12` (centres undefined), the figure is 858 nM; as for `OCCOc1cc2c(NC3CCCCC3)ncnc2cn1`, 177 nM.
On the same count and under the same terms, to `c1ccc2c(c1)CC(Nc1ncnc3ccccc13)C2` belongs 34 nM; to `NCCCNc1cc2c(NC3CCCCC3)ncnc2cn1`, 200 nM; to `COCCOc1cc2c(NC3CCCCC3)ncnc2cn1`, 101 nM.
On to `CNc1cc2c(NC3Cc4ccccc4C3)ncnc2cn1`, for which the Ki in series [1] was 14 nM. Further, the Kp uu in [2] is 0.06. In series [3], this compound came in with a logD of 2.9.
`c1ccc2c(NC3CCCCC3)ccnc2c1`: the Ki in series [1] is 6160 nM.
Still for that read-out and setting: to `CN(C)c1cc2c(NC3Cc4ccccc4C3)ncnc2cn1` belongs 185 nM; to `c1nc(NC2CCCCC2)c2cc(OCCN3CCOCC3)ncc2n1`, 42 nM.
The compound `Nc1cc2c(Nc3ccc(F)c(Cl)c3)ncnc2cn1` yielded an IC50 in [4] of 300 nM.
In the case of `C[C@H](Nc1ncnc2cnc(N(C)C)cc12)c1ccccc1`, the inhibition constant (Ki) in series [1] came to 1400 nM.
Same read-out and setting: as for `CN(C)CCNc1cc2c(NC3Cc4ccccc4C3)ncnc2cn1`, the figure is 102 nM; as for `CNc1cc2c(N(C)C3Cc4ccccc4C3)ncnc2cn1`, 54 nM; as for `O=C1CCCN1CCOc1cc2c(NC3CCCCC3)ncnc2cn1`, 20 nM.
For `COc1cc2c(NC3Cc4ccccc4C3)ncnc2cn1`, in series [1], the Ki was found to be 115 nM.
The same measure, in the same setting: to `c1ccc2c(c1)CC(Nc1nccc3ccccc13)C2` belongs 1650 nM; to `c1ccc2c(NC3CCCCC3)ncnc2c1`, 27 nM; to `CNc1ncnc2cnc(NC3Cc4ccccc4C3)cc12`, 160 nM.
Regarding `OCCOCCNc1cc2c(NC3Cc4ccccc4C3)ncnc2cn1`, the Ki in series [1] amounted to 3 nM. Moreover, the values for the IC50 in series [4] and in [12] were 3 nM and more than 3000 nM, respectively. The compound further had a half-life in series [5] of 18 min. Moreover, the values for the clearance (in [6]; in the series with Liver microsomes [10]; with Liver microsomes [11]) were 26 mL/min/kg, less than 7 µL/min/mg and 30 µL/min/mg, respectively. Further, the Vd in series [7] is 0.6 L/kg. This compound gave a bioavailability in series [8] of 33%. The fraction unbound in [9] was 0.19. Besides, the inhibition entry with Rattus norvegicus [13] and in the series on Rattus norvegicus [15] was “Active” throughout. In addition, the inhibition result in the series on Rattus norvegicus [14] was “inactive”. The Cp with Rattus norvegicus [16] is more than 1000 nM. The Activity entry in the series with Rattus norvegicus [17] is given as “Non-toxic”. In addition, in series [18], the solubility result is given as “Insoluble”. The Kp uu in series [2] came to 0.02. For the same compound, in series [3], the logD stood at 3.
As to `CN(C)c1cc2c(NC3CCCCC3)ncnc2cn1`, the Ki in series [1] was 199 nM.
On to `c1nc(NC2CCCCCC2)c2cc(OCCN3CCOCC3)ncc2n1`, for which, in series [1], the Ki was found to be 6 nM. In addition, the clearance with Liver microsomes [10] worked out at 24 µL/min/mg. Moreover, in series [2], the Kp uu turned out to be 0.5. In series [3], this compound gave a logD of 3.4. In addition, the inhibition entry in the series on Rattus norvegicus [19] is “Active”.
As for `COCCNc1cc2c(NC3CCCCC3)ncnc2cn1`, in [1], the Ki is 11 nM.
For `c1nc(NC2CCCCC2)c2cc(NCCN3CCOCC3)ncc2n1`, the Ki in series [1] amounted to 10 nM. Further, the Kp uu in [2] amounted to 0.07. The same compound yielded a logD in series [3] of 2.8.
For `c1ccc2c(OC3CCCCC3)ncnc2c1`, in [1], the Ki turned out to be 694 nM.
The same measure, in the same setting: to `COCCNc1cc2c(NC3Cc4ccccc4C3)ncnc2cn1` belongs 5 nM; to `OCCNc1ncnc2cnc(NC3Cc4ccccc4C3)cc12`, 125 nM.
For `CN1CC[C@]23c4c5ccc(O)c4O[C@H]2[C@@H](O)C=C[C@H]3[C@H]1C5` [MORPHINE], in the series on Rattus norvegicus [20], the outcome was Active. Besides, the inhibition in vivo at 0.3 mg/kg in the series on Rattus norvegicus [21] amounted to 40%.
With `OCCNc1cc2c(NC3Cc4ccccc4C3)ncnc2cn1`, the Ki in series [1] came out at 21 nM.
The same measure, in the same setting: to `NCCNc1cc2c(NC3CCCCC3)ncnc2cn1` belongs 2200 nM; to `c1ccc2c(c1)CC(Nc1cc3c(NC4Cc5ccccc5C4)ncnc3cn1)C2`, 31 nM.
Still for that read-out and setting: to `OCCCOc1cc2c(NC3CCCCC3)ncnc2cn1` belongs 33 nM.
Same read-out and setting: to `OCCNc1cc2c(NCCO)ncnc2cn1` belongs 6150 nM.

The record behind these values is ChEMBL document CHEMBL1153985, “In vitro and in vivo SAR of pyrido[3,4-d]pyramid-4-ylamine based mGluR1 antagonists” (Bioorg Med Chem Lett, 2009).
